According to patent publication US7223759B2, “Antibacterial 3,5-diaminopiperidine-substituted aromatic and heteroaromatic compounds” (Anadys Pharmaceuticals, Inc., priority 2003, dated 2007):
Read-outs that look alike come from different tables or passages of the source.

Test system: Escherichia coli (ATCC25922) or Staphylococcus aureus (ATCC25923)
Assay: Antibacterial MIC, microdilution method in Mueller-Hinton medium
Type: cell-based
Settings: for MIC: Escherichia coli, 18 h, read-out: Potency (MIC)
Summary of the method: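 Two-fold serial dilutions from 64 to 0.5 μg/ml, in duplicate, by broth microdilution in Mueller-Hinton medium (NCCLS M7-A5). MIC taken as the lowest concentration preventing visible growth after 18 h at 35° C.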

[1] = MIC in E. coli or S. aureus, two-fold serial dilutions 64 to 0.5 μg/ml in duplicate, 18 hours of incubation at 35° C.

Row | MIC [1] [µg/mL] | SMILES | MIC [µg/mL] | other results
1 | > 64 | N[C@@H]1C[C@H](N)CN(c2nc(N3CCC(n4c(=O)[nH]c5ccccc54)CC3)nc(N3C[C@H](N)C[C@H](N)C3)n2)C1 [8-(4,6-Bis-((3R,5S)-3,5-0diamino-piperidin-1-yl)-[1,3,5]triazin-2-yl)-1-phenyl-1,3,8-triaza-spiro[4.5]decan-4-one] | – | –
2 | > 64 | Cc1cc(=O)oc2cc(Nc3nc(N4CCCCC4)nc(N4CCCC4)n3)ccc12.Cl [7-[4-((3R,5S)-33,5-Diamino-piperidin-1-yl)-6-((3R,4S)-3,4-dihydroxy-pyrrolidin-1-yl)-[1,3,5]triazin-2-ylamino]-4-methyl-chromen-2-one] | – | –
3 | > 64 | CNC(=N)Nc1ccc(Nc2nc(C3CCCCC3)nc(N3CCCCC3)n2)cc1.Cl [N-[4-(N-methyl-quanidino)-phenyl]-4,6-Bis-((3R,5S)-3,5-diamino-piperidin-1-yl)-[1,3,5]triazine-2-amine] | – | –
4 | > 64 | Cl.Nc1ccc(Nc2nc(N3C[C@H](N)C[C@H](N)C3)nc(N3C[C@H](N)C[C@H](N)C3)n2)cc1 [N-(4-amino-phenyl)-4,6-Biss-((3R,5S)-3,5-diamino-piperidin-1-yl)-[1,3,5]triazine-2-amine] | – | –
5 | > 64 | Cl.NS(=O)(=O)c1ccc(NC(=O)c2ccc(Nc3nc(N4CCCCC4)nc(N4CCCCC4)n3)cc2O)cc1 [N-[3-hydroxy-4-{4-sulfamoyl-phenylcarbamoyl)-phenyl]-4,6-Bis-((3R,5S)-3,5-diamino-piperidin-1-yl)-[1,3,5]triazine-22-amine] | – | –
6 | < 64 | Cl.O=C(CC(O)c1ccc(Nc2nc(N3CCCCC3)nc(N3CCCCC3)n2)cc1)Nc1ccccc1C(F)(F)F [N-{4-[1-hydroxy-2-(2-trifluoromethyl-phenylcarbazmoyl)-ethyl]-phenyl}-4,6-Bis-((3R,5S)-3,5-diamino-piperidin-1-yl)-[1,3,5]triazine-2-amine] | – | –
7 | < 64 | Cc1ccc(C(=O)Nc2ccc(Nc3nc(N4CCCCC4)nc(N4CCC(N5CCCC5)CC4)n3)cc2O)cc1 [N-{4-[4-((3R,5S)-3,5-Diamino-piperidin-1-yl)-6-(4-pyrrolidin-1-yl-piperidin-1-yl)-[1,3,5]triazin-2-ylamino]-2-hydroxy-phhenyl}-4-methyl-benzamide] | – | –
8 | < 64 | Cc1ccc(S(=O)(=O)N(Cc2ccccc2)c2ccc(Nc3nc(N4CCNCC4)nc(N4C[C@H](N)C[C@H](N)C4)n3)cc2O)cc1 [N-Benzyl-N-{4-[4-((3R,5S)-3,5-diamino-piperidin-1-yl)-6-piperazin-1-yl-[1,3,5]triazin-2-ylamino]-2-hydroxy-phenyl}-4-methyl-benzenesulfonamide] | – | –
9 | < 64 | N[C@@H]1C[C@H](N)CN(c2nc(Nc3ccc(NC(=O)c4cnc5ccccc5n4)c(O)c3)nc(N3C[C@H](N)C[C@H](N)C3)n2)C1 [N-{3-hydroxy-4-[(quinoxaline-2-carbonyl)-amino]-phenyl}-4,6-Bis-((3R,5S)-3,5-diamino-piperidin-1-yl)-[1,3,5]triazine-2-amine] | – | –
10 | < 64 | Cl.N[C@@H]1C[C@H](N)CN(c2nc(Nc3c[nH]c(=O)[nH]c3=O)nc(N3C[C@H](N)C[C@H](N)C3)n2)C1 [N-(2,4-dioxo-1,2,3,4-tetrahydro-pyrimidin-5-yl)-4,6-Bis-((3R,5S)-3,5-diamino-piperidin-1-yl)-[1,3,5]triazine-2-amine] | – | –
11 | < 64 | Cl.NC1C[C@H](N)CN(c2nc(Nc3ccc(Br)c4ccccc34)nc(N3C[C@H](N)C[C@H](N)C3)n2)C1 (stereo in doubt) [N-(4-bromo-naphthalen-1-yl)-4,6-Bis-((3R,5S)-3,5-diamino-piperidin-1-yl)-[1,3,5]triazine-2-amine] | – | –

Continued, molecule first:

Row | SMILES | MIC [1] [µg/mL] | MIC [µg/mL] | other results
12 | N[C@@H]1C[C@H](N)CN(c2cc(Nc3ccc(NC(=O)c4ccc5ccccc5c4O)cc3)nc(N3C[C@H](N)C[C@H](N)C3)n2)C1 [1-Hydroxy-naphthalene-2-carboxylicacid {4-[2-((3R,5S)-3,5-diamino-piperidin-1-yl)-6-((3S,5R)-3,5-diamino-piperidin-1-yl)-pyrimidin-4-ylamino]-phenyl}-amide] | – | < 16 | –
13 | N[C@@H]1C[C@H](N)CN(c2nc(NCCNc3ccc([N+](=O)[O-])cn3)nc(N3C[C@H](N)C[C@H](N)C3)n2)C1 [N-[2-(5-nitro-pyridin-2-ylamino)-ethyl]-4,6-Bis-((3R,5S)-3,5-diamino-piperidin-1-yl)-[1,3,5]triazine-2-amine] | – | > 64 | –
14 | N[C@@H]1C[C@H](N)CN(c2nc(Nc3ccc(C(=O)CC(=O)Nc4ccccc4Cl)cc3)nc(N3C[C@@H](N)C[C@H]3CO)n2)C1 [3-{4-[4-((2S,4S)-4-Amino-2-hydroxymethyl-pyrrolidin-1-yl)-6-((3R,5S)-3,5-diamino-piperidin-1-yl)-[1,3,5]triazin-2-ylamino]-phenyl}-N-(2-chloro-phenyl)-3-oxo-propionamide] | – | < 64 | –
15 | N[C@@H]1C[C@H](N)CN(c2nc(Nc3ccc(C(=O)CC(=O)Nc4cccc(OC(F)(F)F)c4)cc3)nc(N3C[C@H](N)C[C@H](N)C3)n2)C1 [N-{4-[2-(3-trifluoromethoxy-phenylcarbamoyl)-acetyl]-phenyl}-4,6-Bis-((3R,5S)-3,5-diamino-piperidin-1-yl)-[1,3,5]triazine-2-amine] | – | < 16 | –
16 | CC(=O)c1ccc(Nc2nc(N3C[C@H](N)C[C@H](N)C3)nc(N3C[C@@H](N)[C@@H](N)C3)n2)cc1 [1-{4-[4-((3R,5S)-3,5-Diamino-piperidin-1-yl)-6-((3R,4S)-3,4-diamino-pyrrolidin-1-yl)-[1,3,5]triazin-2-ylamino]-phenyl}-ethanone] | – | > 64 | –
17 | N[C@@H]1C[C@H](N)CN(c2nc(Nc3ccc(NC(=O)c4ccc5ccccc5c4O)cc3)nc(N3C[C@@H](N)[C@@H](N)C3)n2)C1 [1-Hydroxy-naphthalene-2-carboxylic acid {4-[4-((3R,5S)-3,5-diamino-piperidin-1-yl)-6-((3R,4S)-3,4-diamino-pyrrolidin-1-yl)-[1,3,5]triazin-2-ylamino]-phenyl}-amide] | – | < 16 | –
18 | N[C@@H]1C[C@H](N)CN(c2nc(Nc3ccc(NC(=O)c4ccc(F)c(F)c4O)cc3)nc(N3C[C@H](N)C[C@H](N)C3)n2)C1 [N-[4-(3,4-difluoro-2-hydroxy-benzoylamino)-phenyl]-4,6-Bis-((3R,5S)-3,5-diamino-piperidin-1-yl)-[1,3,5]triazine-2-amine] | – | < 64 | –
19 | N[C@@H]1C[C@H](N)CN(c2nc(N3C[C@H](N)C[C@H](N)C3)c(Cl)c(Nc3ccc(NC(=O)c4ccc5ccccc5c4O)cc3)c2Cl)C1 [1-Hydroxy-naphthalene-2-carboxylic acid [4-(3,5-dichloro-2,6-Bis-((3R,5S)-3,5-diamino-piperidin-1-yl)-pyridin-4-ylamino)-phenyl]-amide] | – | < 16 | –
20 | Cl.O=C(Oc1ccccc1)c1ccc(Nc2nc(N3CCCCC3)nc(N3CCCCC3)n2)cc1O [drawing 229, 4-[4-((3S,5R)-3,5-diamino-piperidin-1-yl)-6-((3R,5R)-3,5-dihydroxy-piperidin-1-yl)-[1,3,5]triazin-2-ylamino]-2-hydroxy-benzoic acidphenyl ester] | – | – | Potency (MIC) [1]: − (− means MIC>64 μg/ml in E. coli or S. aureus)
21 | Cc1ccc(C(=O)Nc2ccc(Nc3nc(N4C[C@H](N)C[C@H](N)C4)nc(N4C[C@H](N)C[C@H](N)C4)n3)cc2)c(O)c1 [N-[4-(2-hydroxy-4-methyl-benzoylamino)-phenyl]-4,6-Bis-((3R,5S)-3,5-diamino-piperidin-1-yl)-[1,3,5]triazine-2-amine] | – | < 16 | –
